Where a SMILES comes first, the peptide text is derived from it. Bridges are numbered along the chain shown (N, C = ends). [ ]: non-standard residue; d: D form. The star is where a group is joined. ξ: configuration not given here. Phe(4-COOH) = N[C@@H](Cc1ccc(C(=O)O)cc1)C(=O)O; Bip = N[C@@H](Cc1ccc(-c2ccccc2)cc1)C(=O)O; Phe(3-Me) = Cc1cccc(C[C@H](N)C(=O)O)c1; 4Pal = N[C@@H](Cc1ccncc1)C(=O)O; 3Thi = N[C@@H](Cc1ccsc1)C(=O)O; Cha = N[C@@H](CC1CCCCC1)C(=O)O; Ile(3ξ) = CCC(C)[C@H](N)C(=O)O; Thr(3ξ) = CC(O)[C@H](N)C(=O)O; Carboxymethyl = O=C(O)C*; Orn = NCCC[C@H](N)C(=O)O; Dab = NCC[C@H](N)C(=O)O

T1 sequence (Q15116 25-288): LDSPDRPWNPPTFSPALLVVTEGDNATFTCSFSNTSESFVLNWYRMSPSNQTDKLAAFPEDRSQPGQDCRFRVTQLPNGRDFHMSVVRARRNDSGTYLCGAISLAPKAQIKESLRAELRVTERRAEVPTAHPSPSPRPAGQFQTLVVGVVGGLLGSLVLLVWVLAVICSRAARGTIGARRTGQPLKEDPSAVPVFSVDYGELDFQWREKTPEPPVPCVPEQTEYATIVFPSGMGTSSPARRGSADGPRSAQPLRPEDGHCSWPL

One assay has as its target T1, human PD-1 / PD-L1-Ig binding on Jurkat cell line over-expressing human PD-1 (Jurkat-PD-1) (Homo sapiens, UniProt Q15116).
T1 construct: expressed in transfected cells; host or cells: Jurkat
The experiment in a line: Jurkat-PD-1 Cell Binding High-Content Screening Assay (CBA). The format is cell-based. The settings on record: Jurkat HPD1_PDL1 IC50, Jurkat-PD-1 cells, PE-labeled PD-L1-Ig 20 nM final. The essentials:
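Compounds were preincubated with Jurkat-hPD-1 cells in DMEM plus 10% fetal calf serum for 2 h at 37° C. Phycoerythrin-labeled PD-L1-Ig (20 nM final) was then added for 1 hour. Cells were fixed in 4% paraformaldehyde with Hoechst 33342, and bound fluorescence was quantified by high-content imaging.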
With `CCC(C)[C@@H]1NC(=O)[C@H](Cc2ccc(-c3ccccc3)cc2)NC(=O)[C@H](CC(C)C)NC(=O)[C@H](Cc2cccc(C)c2)NC(=O)[C@H](CC(=O)O)NC(=O)[C@H](Cc2ccc(C(=O)O)cc2)NC(=O)[C@H](Cc2ccncc2)NC(=O)CSC[C@@H](C(=O)N[C@H](C)C(N)=O)NC(=O)[C@H](C(C)O)NC(=O)[C@H](C(C)C)NC(=O)[C@H](CC2CCCCC2)NC(=O)[C@H](CCN)NC(=O)[C@@H](CC(C)C)NC(=O)[C@H](Cc2cnc[nH]2)NC1=O` (stereo partly drawn) [Compound 2611] ({CH2CO}-[4Pal][Phe(4-COOH)]D[Phe(3-Me)]L[Bip][Ile(3ξ)]H[dL][Dab][Cha]V[Thr(3ξ)]C[dA]-NH2; thioether N-14), the IC50 turned out to be 0.0192 µM.

The same assay, now with this note: Jurkat-PD-1 cells, PE-labeled PD-L1-Ig 20 nM final; read-out: Jurkat HPD1_PDL1 IC50.
Take `CC(C)C[C@H]1NC(=O)[C@H](CCCN)NC(=O)[C@H](C(C)C)NC(=O)[C@H](Cc2ccc(-c3ccccc3)cc2)NC(=O)[C@H](C(C)C)NC(=O)[C@H](Cc2c[nH]c3ccccc23)NC(=O)[C@H](CC(=O)O)NC(=O)[C@H](Cc2ccc(OCC(=O)O)cc2)NC(=O)[C@H](C(C)O)NC(=O)CSC[C@@H](C(N)=O)NC(=O)[C@H](C(C)O)NC(=O)[C@H](C(C)C)NC(=O)[C@H](CC2CCCCC2)NC(=O)[C@H](CCN)NC1=O` (stereo partly drawn) [Compound 2599] ({CH2CO}-[Thr(3ξ)]Y(Carboxymethyl)DWV[Bip]V[Orn][dL][Dab][Cha]V[Thr(3ξ)]C-NH2; thioether N-14): the IC50 is 0.0178 µM. Still for that read-out and setting: with `CC(C)C[C@H]1NC(=O)[C@H](CCCN)NC(=O)[C@H](C(C)C)NC(=O)[C@H](Cc2ccc(-c3ccccc3)cc2)NC(=O)[C@H](C(C)C)NC(=O)[C@H](Cc2c[nH]c3ccccc23)NC(=O)[C@H](CC(=O)O)NC(=O)[C@H](Cc2ccc(OCC(=O)O)cc2)NC(=O)[C@H](C(C)O)NC(=O)CSC[C@@H](C(=O)N[C@@H](CCN)C(N)=O)NC(=O)[C@H](C(C)O)NC(=O)[C@H](C(C)C)NC(=O)[C@H](CC2CCCCC2)NC(=O)[C@H](CCN)NC1=O` (stereo partly drawn) [Compound 2601] ({CH2CO}-[Thr(3ξ)]Y(Carboxymethyl)DWV[Bip]V[Orn][dL][Dab][Cha]V[Thr(3ξ)]C[Dab]-NH2; thioether N-14) the figure was 0.0126 µM. Same read-out and setting: to `CC(C)C[C@H]1NC(=O)[C@H](CCCN)NC(=O)[C@H](C(C)C)NC(=O)[C@H](Cc2ccc(-c3ccccc3)cc2)NC(=O)[C@H](C(C)C)NC(=O)[C@H](Cc2c[nH]c3ccccc23)NC(=O)[C@H](CC(=O)O)NC(=O)[C@H](Cc2ccc(OCC(=O)O)cc2)NC(=O)[C@H](C(C)O)NC(=O)CSC[C@@H](C(=O)N[C@@H](CO)C(=O)O)NC(=O)[C@H](C(C)O)NC(=O)[C@H](C(C)C)NC(=O)[C@H](CC2CCCCC2)NC(=O)[C@H](CCN)NC1=O` (stereo partly drawn) [Compound 2603] ({CH2CO}-[Thr(3ξ)]Y(Carboxymethyl)DWV[Bip]V[Orn][dL][Dab][Cha]V[Thr(3ξ)]CS-OH; thioether N-14) belongs 0.0176 µM; to `CC(C)C[C@@H]1NC(=O)[C@H](Cc2c[nH]c3ccccc23)NC(=O)[C@H](CC(=O)O)NC(=O)[C@H](Cc2ccc(OCC(=O)O)cc2)NC(=O)[C@H](C(C)O)NC(=O)CSC[C@@H](C(N)=O)NC(=O)[C@H](CO)NC(=O)[C@H](C(C)C)NC(=O)[C@H](CC2CCCCC2)NC(=O)[C@H](Cc2cnc[nH]2)NC(=O)[C@@H](CC(C)C)NC(=O)[C@H](Cc2cnc[nH]2)NC(=O)[C@H](C(C)C)NC(=O)[C@H](Cc2ccc(-c3ccccc3)cc2)NC1=O` (stereo partly drawn) [Compound 2604] ({CH2CO}-[Thr(3ξ)]Y(Carboxymethyl)DWL[Bip]VH[dL]H[Cha]VSC-NH2; thioether N-14), 0.234 µM.

Regarding `Cc1cccc(C[C@@H]2NC(=O)[C@H](CC(=O)O)NC(=O)[C@H](Cc3ccc(OCC(=O)O)cc3)NC(=O)[C@H](C(C)O)NC(=O)CSC[C@@H](C(N)=O)NC(=O)[C@H](C(C)O)NC(=O)[C@H](C(C)C)NC(=O)[C@H](CC3CCCCC3)NC(=O)[C@H](CCN)NC(=O)[C@@H](CC(C)C)NC(=O)[C@H](CCCN)NC(=O)[C@H](C(C)C)NC(=O)[C@H](Cc3ccc(-c4ccccc4)cc3)NC(=O)[C@H](C(C)C)NC2=O)c1` (stereo partly drawn) [Compound 2605] ({CH2CO}-[Thr(3ξ)]Y(Carboxymethyl)D[Phe(3-Me)]V[Bip]V[Orn][dL][Dab][Cha]V[Thr(3ξ)]C-NH2; thioether N-14), the IC50 was 0.0189 µM. Same read-out and setting: with `CC(=O)NCCCC[C@@H]1NC(=O)[C@H](Cc2ccc(-c3ccccc3)cc2)NC(=O)[C@H](CC(C)C)NC(=O)[C@H](Cc2c[nH]c3ccccc23)NC(=O)[C@H](CC(=O)O)NC(=O)[C@H](Cc2ccc(OCC(=O)O)cc2)NC(=O)[C@H](C(C)O)NC(=O)CSC[C@@H](C(N)=O)NC(=O)[C@H](C(C)O)NC(=O)[C@H](C(C)C)NC(=O)[C@H](CC2CCCCC2)NC(=O)[C@H](CCC(=O)O)NC(=O)[C@@H](CC(C)C)NC(=O)[C@H](CCC(=O)O)NC1=O` (stereo partly drawn) [Compound 2607] ({CH2CO}-[Thr(3ξ)]Y(Carboxymethyl)DWL[Bip]K(Ac)E[dL]E[Cha]V[Thr(3ξ)]C-NH2; thioether N-14) the figure was 0.389 µM; with `CC(C)C[C@@H]1NC(=O)[C@H](Cc2c[nH]c3ccccc23)NC(=O)[C@H](CC(=O)O)NC(=O)[C@H](Cc2ccc(OCC(=O)O)cc2)NC(=O)[C@H](C(C)O)NC(=O)CSC[C@@H](C(N)=O)NC(=O)[C@H](CO)NC(=O)[C@H](C(C)C)NC(=O)[C@H](CC2CCCCC2)NC(=O)[C@H](CCC(=O)O)NC(=O)[C@@H](CC(C)C)NC(=O)[C@H](Cc2cnc[nH]2)NC(=O)[C@H](C(C)C)NC(=O)[C@H](Cc2ccc(-c3ccccc3)cc2)NC1=O` (stereo partly drawn) [Compound 2608] ({CH2CO}-[Thr(3ξ)]Y(Carboxymethyl)DWL[Bip]VH[dL]E[Cha]VSC-NH2; thioether N-14), 0.118 µM. The same measure, in the same setting: to `CC(C)C[C@@H]1NC(=O)[C@H](Cc2c[nH]c3ccccc23)NC(=O)[C@H](CC(=O)O)NC(=O)[C@H](Cc2ccc(OCC(=O)O)cc2)NC(=O)[C@H](C(C)O)NC(=O)CSC[C@@H](C(N)=O)NC(=O)[C@H](CO)NC(=O)[C@H](C(C)C)NC(=O)[C@H](CC2CCCCC2)NC(=O)[C@H](Cc2cnc[nH]2)NC(=O)[C@@H](CC(C)C)NC(=O)[C@H](CCC(=O)O)NC(=O)[C@H](C(C)C)NC(=O)[C@H](Cc2ccc(-c3ccccc3)cc2)NC1=O` (stereo partly drawn) [Compound 2609] ({CH2CO}-[Thr(3ξ)]Y(Carboxymethyl)DWL[Bip]VE[dL]H[Cha]VSC-NH2; thioether N-14) belongs 0.0891 µM; to `CC(C)C[C@@H]1NC(=O)[C@H](Cc2c[nH]c3ccccc23)NC(=O)[C@H](CC(=O)O)NC(=O)[C@H](Cc2ccc(OCC(=O)O)cc2)NC(=O)[C@H](C(C)O)NC(=O)CSC[C@@H](C(N)=O)NC(=O)[C@H](CO)NC(=O)[C@H](C(C)C)NC(=O)[C@H](CC2CCCCC2)NC(=O)[C@H](CCC(=O)O)NC(=O)[C@@H](CC(C)C)NC(=O)[C@H](Cc2cnc[nH]2)NC(=O)[C@H](C(C)C)NC(=O)[C@H](Cc2ccc(-c3ccccc3)cc2)NC1=O` (stereo partly drawn) [Compound 2610] ({CH2CO}-[Thr(3ξ)]Y(Carboxymethyl)DWL[Bip]VH[dL]E[Cha]VSC-NH2; thioether N-14), 0.0783 µM; to `CC(C)C[C@H]1NC(=O)[C@H](CCN)NC(=O)[C@H](C(C)C)NC(=O)[C@H](Cc2ccc(-c3ccccc3)cc2)NC(=O)[C@H](C(C)C)NC(=O)[C@H](Cc2c[nH]c3ccccc23)NC(=O)[C@H](CC(=O)O)NC(=O)[C@H](Cc2ccc(OCC(=O)O)cc2)NC(=O)[C@H](Cc2ccsc2)NC(=O)CSC[C@@H](C(=O)N[C@H](CC(N)=O)C(N)=O)NC(=O)[C@H](CCCCN)NC(=O)[C@H](C(C)C)NC(=O)[C@H](CC2CCCCC2)NC(=O)[C@H](CCN)NC1=O` [Compound 2612] ({CH2CO}-[3Thi]Y(Carboxymethyl)DWV[Bip]V[Dab][dL][Dab][Cha]VKC[dN]-NH2; thioether N-14), 0.0059 µM. On the same count and under the same terms, with `CC(=O)NCCCC[C@@H]1NC(=O)[C@H](C(C)C)NC(=O)[C@H](CC2CCCCC2)NC(=O)[C@H](CCN)NC(=O)[C@@H](CC(C)C)NC(=O)[C@H](CCN)NC(=O)[C@H](C(C)C)NC(=O)[C@H](Cc2ccc(-c3ccccc3)cc2)NC(=O)[C@H](C(C)C)NC(=O)[C@H](Cc2c[nH]c3ccccc23)NC(=O)[C@H](CC(=O)O)NC(=O)[C@H](Cc2ccc(OCC(=O)O)cc2)NC(=O)[C@H](Cc2ccsc2)NC(=O)CSC[C@@H](C(=O)N[C@@H](CCN)C(N)=O)NC1=O` [Compound 2613] ({CH2CO}-[3Thi]Y(Carboxymethyl)DWV[Bip]V[Dab][dL][Dab][Cha]VK(Ac)C[Dab]-NH2; thioether N-14) the figure was 0.011 µM.

Consider `CC(C)C[C@H]1NC(=O)[C@H](CCN)NC(=O)[C@H](C(C)C)NC(=O)[C@H](Cc2ccc(-c3ccccc3)cc2)NC(=O)[C@H](C(C)C)NC(=O)[C@H](Cc2c[nH]c3ccccc23)NC(=O)[C@H](CC(=O)O)NC(=O)[C@H](Cc2ccc(OCC(=O)O)cc2)NC(=O)[C@H](Cc2ccsc2)NC(=O)CSC[C@@H](C(N)=O)NC(=O)[C@H](CCCCN)NC(=O)[C@H](C(C)C)NC(=O)[C@H](CC2CCCCC2)NC(=O)[C@H](CCN)NC1=O` [Compound 2614] ({CH2CO}-[3Thi]Y(Carboxymethyl)DWV[Bip]V[Dab][dL][Dab][Cha]VKC-NH2; thioether N-14), for which the IC50 stood at 0.007 µM.

The same assay, now with this note: read-out: Jurkat HPD1_PDL1 IC50; Jurkat-PD-1 cells, PE-labeled PD-L1-Ig 20 nM final.
For the compound `CC(=O)NCC[C@@H]1NC(=O)[C@H](Cc2ccc(-c3ccccc3)cc2)NC(=O)[C@H](C(C)C)NC(=O)[C@H](Cc2c[nH]c3ccccc23)NC(=O)[C@H](CC(=O)O)NC(=O)[C@H](Cc2ccc(OCC(=O)O)cc2)NC(=O)[C@H](C(C)O)NC(=O)CSC[C@@H](C(N)=O)NC(=O)[C@H](C(C)O)NC(=O)[C@H](C(C)C)NC(=O)[C@H](CC2CCCCC2)NC(=O)[C@H](CCN)NC(=O)[C@@H](CC(C)C)NC(=O)[C@H](CCCN)NC1=O` (stereo partly drawn) [Compound 2606] ({CH2CO}-[Thr(3ξ)]Y(Carboxymethyl)DWV[Bip][Dab](Ac)[Orn][dL][Dab][Cha]V[Thr(3ξ)]C-NH2; thioether N-14), the IC50 stood at 0.0764 µM.

These data come from patent US20250163104A1, “MACROCYCLIC IMMUNOMODULATORS” (priority 2021, published 2025).
